Literature values in patent publication US20240082217A1, “PROCESS FOR OBTAINING A PURIFIED PS[…] SOLUTION” (PSILO SCIENTIFIC LTD, priority 2020, published 2024).

Settings: stated as a property of the alkaloid, freebase form; no measurement described

## CN(C)CCc1c[nH]c2cccc(O)c12 [psilocin]
  isoelectric point (pH): 8.47±0.25 pH
